In US9216999B2, “Substituted pyrrolo[2,3-h][1,6]naphthyridines and compositions thereof as JAK inhibitors” (priority 2011, dated 2015) one finds IC50 data, which are given here for 44 compounds.

The target of assay [1] is T1, JAK3 (Homo sapiens (Human), UniProt P52333). In words: JAK3 enzyme assay (Assay Example^b 1).
Assay [2] concerns the target T2, JAK1 (Homo sapiens (Human), UniProt P23458). In words: JAK1 enzyme assay (Assay Example^b 1).
The target in assay [3] is JAK2 (Homo sapiens (Human), UniProt O60674). In words: Enzyme assay (Assay Example^a 1), JAK2. In kind it is biochemical.
Assay [4] concerns the target Tyk2 (Homo sapiens (Human), UniProt P29597). In words: Enzyme assay (Assay Example^a 1), Tyk2. In kind it is biochemical. The settings on record: ATP 100 μM.
Assay [5] deals with T2, JAK1. Briefly: Enzyme assay (Assay Example^a 1), JAK1. In kind it is biochemical. The settings on record: ATP 100 μM.
Assay [6] addresses T1, JAK3. In words: Enzyme assay (Assay Example^a 1), JAK3. The format is biochemical.
The mark [7] stands for this setting: IC50 (μM) JAK3, Table^b 80, ATP 100 μM.
The mark [8] stands for this setting: IC50 (μM) JAK1, Table^b 80, ATP 100 μM.

Read-outs that look alike come from different tables or passages of the source.

Usually IC50 stands for the concentration at which inhibition is half-maximal. Low values mean greater potency in that assay, high ones weaker potency in that assay.

Tyk2, sequence (P29597 whole entry): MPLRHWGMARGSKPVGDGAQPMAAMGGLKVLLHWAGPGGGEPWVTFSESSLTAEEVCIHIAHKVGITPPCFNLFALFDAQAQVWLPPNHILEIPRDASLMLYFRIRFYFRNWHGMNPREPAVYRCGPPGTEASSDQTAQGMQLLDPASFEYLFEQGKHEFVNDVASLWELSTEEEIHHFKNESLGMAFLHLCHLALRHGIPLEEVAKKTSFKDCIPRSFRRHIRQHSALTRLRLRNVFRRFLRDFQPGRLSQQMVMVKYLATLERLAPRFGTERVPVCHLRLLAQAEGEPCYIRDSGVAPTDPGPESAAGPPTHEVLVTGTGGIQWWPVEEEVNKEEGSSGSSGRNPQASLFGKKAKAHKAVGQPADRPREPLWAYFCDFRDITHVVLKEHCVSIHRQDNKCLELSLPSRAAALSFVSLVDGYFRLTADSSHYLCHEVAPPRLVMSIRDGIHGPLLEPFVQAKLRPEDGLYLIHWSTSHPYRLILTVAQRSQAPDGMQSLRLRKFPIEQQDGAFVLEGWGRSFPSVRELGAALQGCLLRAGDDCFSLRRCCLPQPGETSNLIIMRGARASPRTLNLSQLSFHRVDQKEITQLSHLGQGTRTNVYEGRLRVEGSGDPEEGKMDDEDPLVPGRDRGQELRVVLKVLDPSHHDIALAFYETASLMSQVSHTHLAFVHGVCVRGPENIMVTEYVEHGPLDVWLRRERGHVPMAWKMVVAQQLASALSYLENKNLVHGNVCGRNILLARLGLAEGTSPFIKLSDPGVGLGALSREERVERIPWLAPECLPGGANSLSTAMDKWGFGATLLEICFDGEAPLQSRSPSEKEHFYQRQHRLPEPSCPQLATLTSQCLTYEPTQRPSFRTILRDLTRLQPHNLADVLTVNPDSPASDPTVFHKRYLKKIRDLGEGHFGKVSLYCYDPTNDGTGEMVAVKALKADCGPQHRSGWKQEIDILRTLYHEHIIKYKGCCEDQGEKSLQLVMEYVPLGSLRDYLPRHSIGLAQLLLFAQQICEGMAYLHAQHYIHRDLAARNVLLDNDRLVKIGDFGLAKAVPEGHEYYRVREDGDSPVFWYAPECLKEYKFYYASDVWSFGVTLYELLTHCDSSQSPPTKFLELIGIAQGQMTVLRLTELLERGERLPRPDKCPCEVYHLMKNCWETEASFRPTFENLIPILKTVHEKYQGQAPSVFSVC
T1 sequence (P52333 whole entry): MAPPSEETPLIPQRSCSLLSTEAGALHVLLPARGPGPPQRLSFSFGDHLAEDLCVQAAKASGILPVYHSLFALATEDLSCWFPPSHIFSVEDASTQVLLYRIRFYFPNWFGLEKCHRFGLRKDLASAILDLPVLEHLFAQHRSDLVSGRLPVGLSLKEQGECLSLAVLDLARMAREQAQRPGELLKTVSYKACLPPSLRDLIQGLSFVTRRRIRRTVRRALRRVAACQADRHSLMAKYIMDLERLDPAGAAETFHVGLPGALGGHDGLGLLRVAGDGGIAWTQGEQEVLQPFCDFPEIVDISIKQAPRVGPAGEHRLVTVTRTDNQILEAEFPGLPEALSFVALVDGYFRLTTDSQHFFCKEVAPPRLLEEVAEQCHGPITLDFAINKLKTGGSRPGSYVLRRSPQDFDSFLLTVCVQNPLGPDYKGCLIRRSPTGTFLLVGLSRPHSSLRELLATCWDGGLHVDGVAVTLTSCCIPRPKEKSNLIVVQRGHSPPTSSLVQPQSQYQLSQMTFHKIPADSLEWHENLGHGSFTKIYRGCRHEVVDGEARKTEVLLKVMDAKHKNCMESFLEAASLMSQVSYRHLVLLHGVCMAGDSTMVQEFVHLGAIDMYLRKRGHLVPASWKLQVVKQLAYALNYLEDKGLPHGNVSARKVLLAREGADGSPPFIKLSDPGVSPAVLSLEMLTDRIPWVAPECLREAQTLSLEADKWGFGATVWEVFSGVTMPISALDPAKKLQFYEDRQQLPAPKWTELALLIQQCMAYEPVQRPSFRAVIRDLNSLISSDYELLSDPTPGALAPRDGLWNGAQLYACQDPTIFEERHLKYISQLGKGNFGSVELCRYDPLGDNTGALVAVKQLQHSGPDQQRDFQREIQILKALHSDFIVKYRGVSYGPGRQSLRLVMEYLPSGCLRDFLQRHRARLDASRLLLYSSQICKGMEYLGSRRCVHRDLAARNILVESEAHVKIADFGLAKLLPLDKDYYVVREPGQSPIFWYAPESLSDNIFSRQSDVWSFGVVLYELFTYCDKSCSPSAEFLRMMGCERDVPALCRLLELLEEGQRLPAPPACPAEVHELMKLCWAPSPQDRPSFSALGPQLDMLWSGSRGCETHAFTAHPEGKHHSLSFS

Turning to `CN(C)CCn1c(=O)c2cnc3[nH]ccc3c2n(C2CCCCC2)c1=O` [compound 153], the IC50 in assay [1] (IC50 (μM) JAK3, ATP 100 μM) was > 1 µM.

The compound `C[C@@H]1CCN(C(=O)OCc2ccccc2)C[C@@H]1n1ccc(=O)c2cnc3[nH]ccc3c21` (racemic) [compound 35] showed an IC50 in assay [1] (setting [7]) of 0.11 µM.

For the compound `Cc1cn([C@H]2CN(Cc3ccccc3)CC[C@H]2C)c2c(cnc3[nH]ccc32)c1=O` (racemic) [compound 23], the IC50 in assay [2] (setting [8]) came to 0.035 µM.

With `O=c1ccn(C2CCN(Cc3ccc(Br)s3)CC2)c2c1cnc1[nH]ccc12` [compound 81], the IC50 in assay [1] (setting [7]) amounted to 0.031 µM.

With `O=c1[nH]c(=O)n(C2CCN(CC3CC3)CC2)c2c1cnc1[nH]ccc12` [compound 91], in assay [1] (IC50 (μM) JAK3, ATP 100 μM), the IC50 is > 1 µM.

As to `Cc1nc(CN2CCC(n3ccc(=O)c4cnc5[nH]ccc5c43)CC2)cs1` [compound 86], the IC50 in assay [2] (setting [8]) was determined as 0.043 µM.

Regarding `O=C1NCc2cnc3[nH]ccc3c2N1C1CCN(Cc2ccc(C(F)(F)F)cc2)CC1` [compound 63], half-maximal inhibition in assay [2] (setting [8]) (IC50) required 0.12 µM.

In the case of `CO[C@H]1CC[C@H](n2ccc(=O)c3cnc4[nH]ccc4c32)CC1` [compound 70], in assay [1] (setting [7]), the IC50 is > 1 µM.

Regarding `O=c1ccn(C2CCN(Cc3ccc([N+](=O)[O-])o3)CC2)c2c1cnc1[nH]ccc12` [compound 72], the IC50 in assay [1] (setting [7]) is > 1 µM.

Turning to `O=c1[nH]c(=O)n(C2CCC(CN(CCO)Cc3ccccc3)CC2)c2c1cnc1[nH]ccc12` (centres unmarked) [compound 121], the IC50 in assay [1] (IC50 (μM) JAK3, ATP 100 μM) was > 1 µM.

As for `O=c1[nH]c(=O)n([C@H]2CC[C@H](CN3CC[C@@H](O)C3)CC2)c2c1cnc1[nH]ccc12` [compound 112], the IC50 in assay [2] (IC50 (μM) JAK1, ATP 100 μM) worked out at 0.0026 µM.

Compound `C[C@@H]1CCN(S(=O)(=O)c2ccccc2C#N)C[C@@H]1n1ccc(=O)c2cnc3[nH]ccc3c21` (racemic) [compound 25] gave an IC50 in assay [1] (setting [7]) of 0.07 µM.

Turning to `CC(CO)(CO)Cn1c(=O)c2cnc3[nH]ccc3c2n(C2CCCCC2)c1=O` [compound 151], in assay [1] (IC50 (μM) JAK3, ATP 100 μM), the IC50 is > 1 µM.

As to `N#CC=CC1CCC(n2c(=O)[nH]c(=O)c3cnc4[nH]ccc4c32)CC1` (centres unmarked) [compound 103], the IC50 in assay [1] (IC50 (μM) JAK3, ATP 100 μM) is > 1 µM.

Consider `O=c1ccn(C2CCN(Cc3ccc4[nH]ccc4c3)CC2)c2c1cnc1[nH]ccc12` [compound 85], for which the IC50 in assay [1] (setting [7]) is > 1 µM.

`O=c1[nH]c(=O)n(C2CCN(CCC3CCOCC3)CC2)c2c1cnc1[nH]ccc12` [compound 93]: the IC50 in assay [1] (IC50 (μM) JAK3, ATP 100 μM) is > 1 µM.

Consider `O=c1ccn(C2CCN(Cc3cnc(Br)s3)CC2)c2c1cnc1[nH]ccc12` [compound 83], for which the IC50 in assay [1] (setting [7]) worked out at 0.62 µM.

Take `O=c1ccn(C2CCN(Cc3ccc(Cl)c(Cl)c3)CC2)c2c1cnc1[nH]ccc12` [compound 75]: in assay [1] (setting [7]), the concentration for half-maximal inhibition (IC50) is > 1 µM.

Consider `C[C@@H]1CCN(C(=O)c2cccc(C(F)(F)F)c2)C[C@@H]1n1ccc(=O)c2cnc3[nH]ccc3c21` (racemic) [compound 31], for which the IC50 in assay [1] (setting [7]) is > 1 µM.

Turning to `N#CCC(=O)N(CC(F)(F)F)C[C@H]1CC[C@H](n2c(=O)[nH]c(=O)c3cnc4[nH]ccc4c32)CC1` [Synthetic Example^b 135, 2-Cyano-N-{[trans-4-(2,4-dioxo-2,3,4,7-tetrahydro-1H-pyrrolo[3′,2′:5,6]pyrido[4,3-d]pyrimidin-1-yl)cyclohexyl]methyl}-N-(2,2,2-trifluoroethyl)acetamide], inhibition in assay [1] (IC50 (μM) JAK3, ATP 100 μM) was half-maximal at 0.5 µM (IC50).

As to `N#CCC1CN(C[C@H]2CC[C@H](n3c(=O)[nH]c(=O)c4cnc5[nH]ccc5c43)CC2)C1` [compound 124], the IC50 in assay [1] (IC50 (μM) JAK3, ATP 100 μM) was > 1 µM.

Turning to `O=c1c2cnc3[nH]ccc3c2n(C2CCCCC2)c(=O)n1C1CCNCC1` [compound 154], in assay [1] (IC50 (μM) JAK3, ATP 100 μM), the IC50 is > 1 µM.

Consider `CC(C#N)n1c(=O)c2cnc3[nH]ccc3c2n(C2CCCCC2)c1=O` (racemic) [compound 146], for which the IC50 in assay [1] (IC50 (μM) JAK3, ATP 100 μM) is > 1 µM.

On to `C[C@@H]1CCN(C(=O)c2ccccc2C(F)(F)F)C[C@@H]1n1ccc(=O)c2cnc3[nH]ccc3c21` (racemic) [compound 30], for which the IC50 in assay [1] (setting [7]) is > 1 µM.

For `CN(C)C(=O)Cn1c(=O)c2cnc3[nH]ccc3c2n(C2CCCCC2)c1=O` [compound 152], in assay [1] (IC50 (μM) JAK3, ATP 100 μM), inhibition was half-maximal at 0.48 µM (IC50).

In the case of `O=c1[nH]c(=O)n([C@H]2CC[C@H](CNCC3(O)CCCCC3)CC2)c2c1cnc1[nH]ccc12` [compound 126], the IC50 in assay [1] (IC50 (μM) JAK3, ATP 100 μM) is > 1 µM.

As for `CCC(C)CN1CCC(n2c(=O)[nH]c(=O)c3cnc4[nH]ccc4c32)CC1` (racemic) [compound 92], the IC50 in assay [1] (IC50 (μM) JAK3, ATP 100 μM) was > 1 µM.

In turn, `O=c1ccn(C2CCN(Cc3ccccc3)CC2)c2c1cnc1[nH]ccc12` [compound 54] showed an IC50 in assay [1] (setting [7]) of 0.47 µM.

Turning to `O=c1[nH]c(=O)n(C2CCN(Cc3ccc(C(F)(F)F)cc3)CC2)c2c1cnc1[nH]ccc12` [compound 52], the IC50 in assay [1] (setting [7]) is > 1 µM.

As for `O=c1c2cnc3[nH]ccc3c2n(C2CCCCC2)c(=O)n1CCN1CCOCC1` [compound 142], the IC50 in assay [1] (IC50 (μM) JAK3, ATP 100 μM) was > 1 µM.

In assay [1] (setting [7]), `O=c1ccn(C2CCN(Cc3ccc(C(F)(F)F)o3)CC2)c2c1cnc1[nH]ccc12` [compound 71] displayed an IC50 of 0.46 µM.

In turn, `C[C@@H]1CCN(Cc2cccc(C(F)(F)F)c2)C[C@@H]1n1ccc(=O)c2cnc3[nH]ccc3c21` (racemic) [compound 39] showed a half-inhibitory concentration (IC50) in assay [1] (setting [7]) of 0.18 µM.

As to `COc1ccc(CNC[C@H]2CC[C@H](c3nnn4cnc5[nH]ccc5c34)CC2)cc1` [compound 270, 1-[trans-4-(7H-pyrrolo[3,2-e][1,2,3]triazolo[1,5-c]pyrimidin-1-yl)cyclohexyl]-N-(4-methoxybenzyl)methanamine], the IC50 in assay [3] (ATP 100 μM) came out at 0.1 µM; in assay [4] it was 0.0048 µM; in assay [5], 0.012 µM; in assay [6] (ATP 100 μM), 0.75 µM.

`OC1(c2ccc(Cl)c(C(F)(F)F)c2)CCN(C[C@H]2CC[C@H](c3nnn4cnc5[nH]ccc5c34)CC2)CC1` [compound 309, 1-{[trans-4-(7H-pyrrolo[3,2-e][1,2,3]triazolo[1,5-c]pyrimidin-1-yl)cyclohexyl]methyl}-4-[4-chloro-3-(trifluoromethyl)phenyl]piperidin-4-ol]: the IC50 was 0.097 µM in assay [3], 0.31 µM in assay [4], 0.0076 µM in assay [5] and > 1 µM in assay [6] (ATP 100 μM).

Take `N#Cc1ccc(CN[C@H]2CC[C@H](c3nnn4cnc5[nH]ccc5c34)CC2)cc1` [137b]: the IC50 in assay [3] (ATP 100 μM, Table^a 154) was 0.039 µM; in assay [4] (Table^a 154), 0.088 µM; in assay [5] (Table^a 154) it was 0.0041 µM; in assay [6] (ATP 100 μM, Table^a 154) it was 0.38 µM.

In the case of `CN(C[C@H]1CC[C@H](c2nnn3cnc4[nH]ccc4c23)CC1)c1ccc(C#N)cc1` [compound 108], the IC50 in assay [3] (ATP 100 μM, Table^a 154) was 0.024 µM; in assay [4] (Table^a 154), 0.58 µM; in assay [5] (Table^a 154) it was 0.0039 µM; in assay [6] (ATP 100 μM, Table^a 154), 0.58 µM.

Regarding `CC(C)(C)OC(=O)N1CC[C@H](NC[C@H]2CC[C@H](c3nnn4cnc5[nH]ccc5c34)CC2)C1` [compound 337, (S)-tert-butyl 3-({[trans-4-(7H-pyrrolo[3,2-e][1,2,3]triazolo[1,5-c]pyrimidin-1-yl)cyclohexyl]methyl}amino)pyrrolidine-1-carboxylate], the IC50 is 0.34 µM in assay [3] (ATP 100 μM), 0.51 µM in assay [4], 0.029 µM in assay [5] and > 1 µM in assay [6] (ATP 100 μM).

Regarding `O=c1[nH]c(C2CCCCC2)c2c3cc[nH]c3ncn12` [compound 9], the IC50 in assay [3] (ATP 100 μM) came out at 0.046 µM; in assay [4], 0.078 µM; in assay [5], 0.03 µM; in assay [6], 0.43 µM.

`FC(F)(F)CCNC[C@H]1CC[C@H](c2nnn3cnc4[nH]ccc4c23)CC1` [compound 256, N-{[trans-4-(7H-pyrrolo[3,2-e][1,2,3]triazolo[1,5-c]pyrimidin-1-yl)cyclohexyl]methyl}-3,3,3-trifluoropropan-1-amine]: the IC50 was determined as 0.062 µM in assay [3] (ATP 100 μM), 0.27 µM in assay [4], 0.015 µM in assay [5] and 0.99 µM in assay [6] (ATP 100 μM).

With `Fc1cnccc1CN1CCC(c2nnn3cnc4[nH]ccc4c23)CC1` [compound 161, 1-{1-[(3-fluoropyridin-4-yl)methyl]piperidin-4-yl}-7H-pyrrolo[3,2-e][1,2,3]triazolo[1,5-c]pyrimidine], the IC50 in assay [3] (ATP 100 μM, Table^a 154) was 0.011 µM; in assay [4] (Table^a 154) it was 0.14 µM; in assay [5] (Table^a 154), 0.0034 µM; in assay [6] (ATP 100 μM, Table^a 154), 0.31 µM.

Regarding `O=C(CC(F)(F)F)N1CCCC(c2nnn3cnc4[nH]ccc4c23)C1` (racemic) [compound 17], the IC50 in assay [3] (ATP 100 μM, Table^a 154) stood at 0.076 µM; in assay [4] (Table^a 154), 0.57 µM; in assay [5] (Table^a 154), 0.029 µM; in assay [6] (ATP 100 μM, Table^a 154), 2.1 µM.

Regarding `FC(F)(F)C1(NC[C@H]2CC[C@H](c3nnn4cnc5[nH]ccc5c34)CC2)CC1` [compound 292, N-{[trans-4-(7H-pyrrolo[3,2-e][1,2,3]triazolo[1,5-c]pyrimidin-1-yl)cyclohexyl]methyl}-1-(trifluoromethyl)cyclopropanamine], the IC50 came out at 0.017 µM in assay [3] (ATP 100 μM), 0.27 µM in assay [4], 0.0027 µM in assay [5] and 0.39 µM in assay [6] (ATP 100 μM).

For `O=S(=O)(C[C@H]1CC[C@H](c2nnn3cnc4[nH]ccc4c23)CC1)NCC(F)(F)F` [compound 420, 1-[trans-4-(7H-pyrrolo[3,2-e][1,2,3]triazolo[1,5-c]pyrimidin-1-yl)cyclohexyl]-N-(2,2,2-trifluoroethyl)methanesulfonamide], the IC50 in assay [3] (ATP 100 μM) worked out at 0.015 µM; in assay [4], 0.3 µM; in assay [5], 0.0057 µM; in assay [6] (ATP 100 μM) it was 0.41 µM.

On to `N#CCNC(=O)C[C@H]1CC[C@@H](c2nnn3cnc4[nH]ccc4c23)CC1` [443a, 2-[cis-4-(7H-Pyrrolo[3,2-e][1,2,3]triazolo[1,5-c]pyrimidin-1-yl)cyclohexyl]-N-(cyanomethyl)acetamide], for which the IC50 in assay [3] (ATP 100 μM) stood at 0.06 µM; in assay [4], 0.54 µM; in assay [5], 0.026 µM; in assay [6] (ATP 100 μM), 0.73 µM.
